Assay results reported in PMC7508583, “Discovery and Preclinical Development of Antigiardiasis Fumagillol Derivatives” (Antimicrobial Agents and Chemotherapy, 2020).
≈ marks a conversion by molar mass, not a printed value. Read-outs that look alike come from different tables or passages of the source.

Assays:
[1] = system: metronidazole-resistant G. lamblia 1279-M1; test: Trophozoite viability MLC determination; type: cell-based, Giardia lamblia; conditions: metronidazole-resistant strain; 3 days treatment, 3 days proliferation
Experimental: (§1) The inhibition of metabolism enables the organism to resume proliferation once treatment is completed. To discriminate between the lethality of the promising compounds and the induction of metabolic inactivity by the promising compounds, the minimum lethal concentration (MLC) values were determined by treating the trophozoites with the test compounds for 3 days and transferring the resulting cultures to medium lacking the compounds for 3 days of proliferation. This assay was described previously for G. lamblia ([18]) and was adapted to E. histolytica in the current study.
(§2) Trophozoites of G. lamblia isolates WB and GS were grown anaerobically in borosilicate glass screw-cap culture tubes (Fisher Scientific) at pH 7.0 in Keister’s modified TYI-S-33 medium (ATCC). The medium was supplemented with 10% heat-inactivated bovine serum (Sigma-Aldrich) and 0.05% bovine bile (Sigma-Aldrich). To attain low-oxygen-tension conditions, the tubes were filled to 85% to 90% of their total volume capacity and incubated without shaking at 37°C. Subcultures (2 × 10^5 trophozoites per tube) were made three times a week. Detachment of trophozoites for inoculation was achieved by chilling the cultures on ice for 20 min. Culturing and detachment of metronidazole-resistant G. lamblia assemblage A 713M3 and assemblage B 1279-M1 trophozoites followed the same protocol, except that the growth medium was supplemented with metronidazole, with the concentration gradually being increased to 10 μM.
(§3) Compounds were prepared by 2-fold serial dilutions in growth medium containing 0.5% DMSO (diluted from a starting concentration of 1 μM to 12 concentrations for all compounds except metronidazole, fumagillol, and TNP-470, which were diluted from 100 μM), and 100 μl/well was transferred in duplicate to the 96-well culture plate. Ten microliters of G. lamblia trophozoites was plated at a density of 10,000 cells/well. The plates were incubated under anaerobic condition in a BD GasPak EZ container system (BD Diagnostics) at 37°C for 72 h and surveyed visually under a microscope to check trophozoite survival, mobility, and attachment. […] The tubes were incubated under anaerobic condition for 3 days at 37°C and checked under a microscope. The MLC value was the concentration in the tube with the lowest compound concentration without any live organism.

[2] = system: metronidazole-resistant G. lamblia 713M3; test: Trophozoite viability MLC determination; type: cell-based, Giardia lamblia; conditions: metronidazole-resistant strain; 3 days treatment, 3 days proliferation
Experimental: as §1, §2, §3

[3] = system: G. lamblia WB trophozoites; test: Trophozoite viability MLC determination; type: cell-based, Giardia lamblia; conditions: 3 days treatment, 3 days proliferation without drug
Experimental: as §1, §2, §3

[4] = system: CHO-K1 (CHO) cells; test: CHO cell cytotoxicity, ATP content assay; type: cell-based; conditions: for IC50: Cricetulus griseus, CHO, 48 h, read-out: IC50 CHO
Experimental: Cytotoxicity in CHO-K1 (CHO) cells was also determined using the homogeneous ATP content assay with an ATPlite kit, to enable comparison with the IC50 values in the G. lamblia and E. histolytica trophozoites and provide an initial estimate of toxicity risk. Fumagillin served as a comparative control, untreated cells (including 0.5% DMSO) served as a negative control, and puromycin served as a positive control.
CHO cells (180 μl) were seeded at a density of 5,000 cells/well and incubated for 24 h at 37°C in a 5% CO2 incubator in a 96-well plate. The cells were treated with 20 μl fumagillin or fumagillol derivative solutions diluted to obtain final concentrations of 100, 30, 10, 3, 1, and 0.3 μM. Puromycin was diluted from 10 through 0.03 μM. The plates were incubated for 48 h at 37°C in a 5% CO2 incubator. One hundred microliters per well of ATPlite luminescence reagent was added to the plates, the plates were incubated at room temperature for 30 min, and the luminescence signal was measured. The assay was performed in duplicate.

[5] = system: G. lamblia WB trophozoites; test: Trophozoite growth inhibition, ATP content (ATPlite) assay; type: cell-based; conditions: Giardia duodenalis, 72 h, read-out: Mean [IC50 ± SE(IC50)] G. lamblia WB
Experimental: Antigiardia assays followed by enzyme inhibition determination facilitated the selection of compounds for permeation and stability studies by in vitro methods, prior to advancing to in vivo studies. Compound potency was evaluated first by measuring G. lamblia trophozoite growth as a function of the compound concentration and calculating the IC50 values. Potency in Entamoeba histolytica trophozoites was also determined because of the early report that fumagillin cured amebiasis ([19]). The intent was to test whether the compounds would be suitable to treat gastrointestinal amebiasis rather than the invasive form of the disease, given that the designed strategy was based on reducing compound permeation across the epithelial cell barrier. […] Trophozoite growth was determined by monitoring the ATP cell content using a high-throughput homogeneous assay developed previously for G. lamblia ([57]). The ATP content serves as a marker of cell integrity since ATP degrades rapidly when cells die and the luminescence signal generated by luciferase requires ATP. The same assay was also adopted in 96-well plates for E. histolytica trophozoite growth measurement, as described in Materials and Methods. A similar E. histolytica trophozoite ATP content assay was described previously ([58]). Fumagillin, TNP-470, and a standard-of-care drug (metronidazole) served as positive controls, and cells without the drug (in the presence of 0.5% dimethyl sulfoxide [DMSO]) served as the negative control.
as §2
The growth inhibition assays were performed in duplicate, once for each compound, for all compounds except fumagillin, which served as a positive control and whose inhibitory ability was measured multiple times as new sets of compounds were tested. All dry compounds except for fumagillin were dissolved in dimethyl sulfoxide (DMSO; Sigma) at a stock concentration of 10 mM and then diluted 1:100 in growth medium to a final compound concentration of 100 μM; fumagillin was diluted to 20 μM. Compound solution aliquots (100 μl) were prepared by 3-fold serial dilutions in growth medium containing 0.5% DMSO and distributed into 96-well assay plates. This was followed by the addition of 10 μl G. lamblia or E. histolytica culture containing 10,000 trophozoites. Fumagillin served as a positive control, and the medium-diluted DMSO alone served as a negative control. The assay plates were placed in a BD GasPak EZ container system (BD Diagnostics) to create an anaerobic growth environment. The sealed containers were incubated at 37°C for 72 h. Following incubation, 70 μl/well of the ATPlite reagent (PerkinElmer) was added to the assay plates for one-step lysis and ATP level detection. The luminescent signals of the assay plates were measured on an EnSpire 2300 plate reader (PerkinElmer). Concentration-response titration points for each compound were fitted to a 4-parameter logistic nonlinear regression model using the KaleidaGraph tool, yielding the IC50 value and standard error (SE).

[6] = trophozoite growth, ATP content

SMILES | MLC G. lamblia 1279-M1 [1] | MLC G. lamblia 713M3 [2] | MLC G. lamblia WB [3] | IC50 ([4]; cytotoxicity, ATP content) [nM] | IC50 [5, 6] [nM] | IC50 [4] [nM] | IC50 [5] [nM] | selectivity, IC50 for CHO cells/IC50 for amebae ([4]; vs E. histolytica) | selectivity, IC50 for CHO cells/IC50 for giardia ([4]; vs G. lamblia trophozoites)
COC1C(OC(=O)NC(=O)CN2CCOCC2)CCC2(CO2)C1C1(C)OC1CC=C(C)C (stereo not shown) [Compound 3] | 0.98 nM (≈ 0.443 ng/mL) | 3.9 nM (≈ 1.76 ng/mL) | 0.98 nM (≈ 0.443 ng/mL) | > 100000 | 1.6 ± 0.1 |  |  |  | 
COC1C(OC(=O)NC(=O)CN2CCC(O)CC2)CCC2(CO2)C1C1(C)OC1CC=C(C)C (stereo not shown) [Compound 4] | 7.8 nM (≈ 3.64 ng/mL) | 3.9 nM (≈ 1.82 ng/mL) | 3.9 nM (≈ 1.82 ng/mL) | > 100000 | 6.8 ± 0.3 |  |  |  | 
CO[C@@H]1[C@H](OC(=O)Nc2ccc(C(=O)O)cc2)CC[C@]2(CO2)[C@H]1[C@@]1(C)O[C@@H]1CC=C(C)C [Compound 9, 4-(((((3R,4S,5S,6R)-5-methoxy-4-((2R,3R)-2-methyl-3-(3-methylbut-2-en-1-yl)oxiran-2-yl)-1-oxaspiro[2.5]octan-6-yl)oxy)carbonyl)amino)benzoic acid] | 7.8 nM (≈ 3.47 ng/mL) | 7.8 nM (≈ 3.47 ng/mL) | 3.9 nM (≈ 1.74 ng/mL) |  | 6.3 ± 0.7 | > 100000 |  |  | 
CCOC(=O)Cc1ccc(NC(=O)OC2CCC3(CO3)C(C3(C)OC3CC=C(C)C)C2OC)cc1 (stereo not shown) [Compound 11] |  |  | 98 nM (≈ 47.8 ng/mL) | > 100000 | 7.4 ± 1.3 |  |  |  | 
COC1C(OC(=O)N2CCC(O)CC2)CCC2(CO2)C1C1(C)OC1CC=C(C)C (stereo not shown) [Compound 16] | 7.8 nM (≈ 3.19 ng/mL) | 1.95 nM (≈ 0.799 ng/mL) | 1.95 nM (≈ 0.799 ng/mL) | > 100000 | 2.6 ± 0.2 |  |  |  | 
CO[C@@H]1[C@H](OC(=O)/C=C/C=C/C=C/C=C/C(=O)O)CC[C@]2(CO2)[C@H]1[C@@]1(C)O[C@@H]1CC=C(C)C [Fumagillin, reference compound] | 125 nM (≈ 57.3 ng/mL) | 250 nM (≈ 115 ng/mL) | 125 nM (≈ 57.3 ng/mL) |  |  | > 100000 | 9.5 ± 2.2 |  | 
Cc1ncc([N+](=O)[O-])n1CCO [Metronidazole, reference compound] | 100,000 nM | 100,000 nM | 7,700 nM |  | 5570 ± 877 |  |  | > 10 | < 10
